Measured values published in US10253002B2, “Compounds and methods of treating infections” (Neoculi Pty Ltd., priority 2013, dated 2019).
≈ marks a conversion by molar mass, not a printed value. Where “and” joins values, the source holds several entries; their conditions need not be identical. Equal entries are not always repeated. Where two headings read alike, the source gives them in different places.

What was measured:
MRSA = assay: Broth microdilution MIC, Example 7 (NCL812 and analogues); assay type: cell-based, Staphylococcus aureus; settings: for activity against MRSA among analogues: MIC testing, two MRSA strains; for MIC (μg/ml) at 24 hours, MRSA 1: isolate MRSA 1; for MIC (μg/ml) at 24 hours, MRSA 1 / MIC (μg/ml) at 24 hours, MRSA 2: 1st and 2nd replicate rows; for MIC (μg/ml) at 24 hours, MRSA 2: isolate MRSA 2; for MIC: Staphylococcus aureus, MRSA, 24 h, duplicate lines per compound; for MIC (μg/ml) at 24 hours, MRSA 1 / MIC (μg/ml) at 24 hours, MRSA 2 / MIC: 24 hours
Outline: (§1)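 CLSI broth microdilution against two MRSA and two VRE strains, tested in duplicate with a third run if results differed by more than one two-fold dilution.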

Pseudomonas aeruginosa = assay: as above; assay type: cell-based; settings: for MIC (μg/ml) at 24 hours Pseudomonas #008: Pseudomonas #008, 24 hours
[1] = test system: Gram-negative bacteria (E. coli and Pseudomonas aeruginosa); assay: Testing of NCL812 analogues, Gram-negative antibacterial activity; assay type: cell-based; settings: MIC testing
Protocol: Minimum inhibitory concentrations (μg/ml) were determined using the broth microdilution method recommended by the Clinical and Laboratory Standards Institute (CLSI). MIC breakpoints were determined by visual assessment and then confirmed using an ELISA plate reader, measuring absorbance levels at 600 nm. Bacterial growth (turbidity) in the wells with antimicrobial was compared with the amount of growth (turbidity) in the growth-control well (containing no antimicrobial). All isolates were tested in duplicate, if there was a difference of greater than one two-fold dilution in the results, the test was repeated a third time. The purity of the isolates was closely monitored during testing by subculturing the prepared bacterial inoculum onto SBA (sheep blood agar). The MICs of the control strains for the antimicrobial ampicillin were determined for each testing run as an internal quality control. The MIC50, […] and MIC range (minimum and maximum) were calculated for each of the bacterial groups.
MICs were determined against two MRSA strains, two VRE strains and one strain each of E. coli and Pseudomonas aeruginosa.

Escherichia coli = assay: Broth microdilution MIC, Example 7 (NCL812 and analogues); assay type: cell-based; settings: for MIC (μg/ml) at 24 hours, E. coli: 1st and 2nd replicate rows; for MIC (μg/ml) at 24 hours E. coli ATCC25922: E. coli ATCC25922, 24 hours
VRE = assay: as above; assay type: cell-based, Enterococcus spp.; settings: for activity against VRE among analogues: MIC testing, two VRE strains; for MIC (μg/ml) at 24 hours, VRE 1: isolate VRE 1; for MIC (μg/ml) at 24 hours, VRE 1 / MIC (μg/ml) at 24 hours, VRE 2: 1st and 2nd replicate rows; for MIC (μg/ml) at 24 hours, VRE 2: isolate VRE 2; for MIC: Enterococcus, VRE, 24 h, duplicate lines per compound; for MIC (μg/ml) at 24 hours, VRE 1 / MIC (μg/ml) at 24 hours, VRE 2 / MIC: 24 hours
Outline: as §1

E. faecalis #32 = assay: Broth microdilution MIC, Example 7 (NCL analogues), Table 42; assay type: cell-based, Enterococcus faecalis; settings: E. faecalis #32, 24 hours
S. aureus ATCC29213 = assay: as above; assay type: cell-based, Staphylococcus aureus; settings: S. aureus ATCC29213, 24 hours
[2] = 24 hours, 1st and 2nd replicate rows

Structure (SMILES) | activity against MRSA among analogues (MRSA) | MIC (μg/ml) at 24 hours, MRSA 1 (MRSA) | MIC (μg/ml) at 24 hours, MRSA 2 (MRSA) | MIC (μg/ml) at 24 hours, P. aeruginosa (Pseudomonas aeruginosa; [2]) | level of Gram-negative antibacterial activity among analogues [1] | MIC (μg/ml) at 24 hours, E. coli (Escherichia coli; 24 hours) | activity against VRE among analogues (VRE) | MIC (μg/ml) at 24 hours, VRE 1 (VRE) | MIC (μg/ml) at 24 hours, VRE 2 (VRE) | MIC (μg/ml) at 24 hours Pseudomonas #008 (Pseudomonas aeruginosa) | MIC (μg/ml) at 24 hours E. faecalis #32 (E. faecalis #32) | MIC (μg/ml) at 24 hours S. aureus ATCC29213 (S. aureus ATCC29213) | MIC (μg/ml) at 24 hours E. coli ATCC25922 (Escherichia coli) | also measured
Cl.N=C(N)N/N=C/c1ccc(Cl)cc1 [NCL030] | greatest activity | 128 µg/mL | 128 µg/mL | 128 µg/mL | highest level of Gram-negative antibacterial activity | >128 µg/mL | greatest activity | 64 µg/mL | 64 µg/mL | – | – | – | – | –
Cl.N=C(N)N/N=C/c1ccc(C(F)(F)F)cc1 [NCL041] | greatest activity | 64 µg/mL | 64 µg/mL | 128 µg/mL | highest level of Gram-negative antibacterial activity | 128 µg/mL and 64 µg/mL | greatest activity | 64 µg/mL | 64 µg/mL | – | – | – | – | –
Cl.N=C(N)N/N=C/c1cccc(C(F)(F)F)c1 [NCL043] | greatest activity | 128 µg/mL | 128 µg/mL | 128 µg/mL | highest level of Gram-negative antibacterial activity | 128 µg/mL | greatest activity | 128 µg/mL | 128 µg/mL and 64 µg/mL | – | – | – | – | –
Cc1ccc(/C=N/NC(=N)N)cc1.Cl [NCL044] | greatest activity | 128 µg/mL | 128 µg/mL | 128 µg/mL | highest level of Gram-negative antibacterial activity | >128 µg/mL | greatest activity | 128 µg/mL | 128 µg/mL | – | – | – | – | –
Cl.N=C(N)N/N=C/c1cccc(Cl)c1 [NCL052] | greatest activity | 128 µg/mL | 128 µg/mL | 128 µg/mL | highest level of Gram-negative antibacterial activity | >128 µg/mL | greatest activity | 128 µg/mL | 128 µg/mL | – | – | – | – | –
Cl.N=C(N)NN=Cc1ccc(F)cc1 [NCL053] | – | >128 µg/mL | >128 µg/mL | 128 µg/mL | highest level of Gram-negative antibacterial activity | >128 µg/mL | – | >128 µg/mL | >128 µg/mL | – | – | – | – | –
Cl.N=C(N/N=C/c1cc(O)c(O)c(O)c1)N/N=C/c1cc(O)c(O)c(O)c1 [NCL097, 2,2′-bis[(3,4,5-trihydroxyphenyl)methylene]carbonimidic Dihydrazide Hydrochloride] | greatest activity | – | – | – | highest level of Gram-negative antibacterial activity | – | greatest activity | – | – | – | – | – | – | MIC (MRSA; read-out: MIC (μg/ml) at 24 hours, MRSA 1, MRSA 1): 128 µg/mL; MIC (MRSA; read-out: MIC (μg/ml) at 24 hours, MRSA 2, MRSA 2): 32 µg/mL; MIC (μg/ml) at 24 hours, P. aeruginosa (Pseudomonas aeruginosa; P. aeruginosa, 24 hours, duplicate lines per compound, Hydrochloride): >128 µg/mL; MIC (Pseudomonas aeruginosa; Pseudomonas aeruginosa, 24 h, read-out: MIC (μg/ml) at 24 hours, P. aeruginosa, 24 hours, duplicate lines per compound): 128 µg/mL; MIC (Escherichia coli; Escherichia coli, read-out: MIC (μg/ml) at 24 hours, E. coli, 24 hours, duplicate lines per compound): > 128 µg/mL; MIC (VRE; read-out: MIC (μg/ml) at 24 hours, VRE 1, VRE 1): 32 µg/mL; MIC (VRE; read-out: MIC (μg/ml) at 24 hours, VRE 2, VRE 2): 32 µg/mL
CC(Nc1cc(Cl)nc(N)n1)c1ccccc1 (stereo not shown) [NCL 182] | – | – | – | – | – | – | – | – | – | >64 µg/mL | >64 µg/mL | >64 µg/mL | >64 µg/mL | –
CC(Nc1cc(NC(C)c2ccccc2)ncn1)c1ccccc1 (stereo not shown) [NCL 183] | – | – | – | – | – | – | – | – | – | >64 µg/mL | >64 µg/mL | >64 µg/mL | >64 µg/mL | –
CC(Nc1cc(NC(C)c2ccccc2)nc(N)n1)c1ccccc1 (stereo not shown) [NCL 184] | – | – | – | – | – | – | – | – | – | >64 µg/mL | 64 µg/mL (≈ 192 µM) | >64 µg/mL | >64 µg/mL | –
C/C(=N\Nc1cc(N/N=C(\C)c2ccc(Cl)cc2)ncn1)c1ccc(Cl)cc1.Cl [NCL 185] | – | – | – | – | – | – | – | – | – | >64 µg/mL | >64 µg/mL | >64 µg/mL | >64 µg/mL | –
CC(Nc1cnc(NC(C)c2ccc(Cl)cc2)cn1)c1ccc(Cl)cc1 (stereo not shown) [NCL 186] | – | – | – | – | – | – | – | – | – | >64 µg/mL | >64 µg/mL | >64 µg/mL | >64 µg/mL | –
Cl.Clc1ccc(/C=N/Nc2cc(N/N=C/c3ccc(Cl)cc3)ncn2)cc1 [NCL 187] | – | – | – | – | – | – | – | – | – | >64 µg/mL | >64 µg/mL | >64 µg/mL | >64 µg/mL | –
Cl.[H]/N=C(\N)NN=C(CCCC)c1ccc(Cl)cc1 [NCL 188] | – | – | – | – | – | – | – | – | – | >64 µg/mL | 32 µg/mL | 32 µg/mL | 64 µg/mL | –
Cl.OC/C(=N\Nc1cc(N/N=C(\CO)c2ccc(Cl)cc2)ncn1)c1ccc(Cl)cc1 [NCL 189] | – | – | – | – | – | – | – | – | – | >64 µg/mL | >64 µg/mL | >64 µg/mL | >64 µg/mL | –
Cl.[H]/N=C(/N)NN=C(CNN)c1ccc(Cl)cc1 [NCL 190] | – | – | – | – | – | – | – | – | – | >64 µg/mL | 64 µg/mL | 32 µg/mL and 64 µg/mL | >64 µg/mL | –
C/C(=N\NC(=N)N)c1ccc(Cl)cc1.Cl [NCL 191] | – | – | – | – | – | – | – | – | – | >64 µg/mL | >64 µg/mL | >64 µg/mL | >64 µg/mL | –
Cl.N=C(N)NN=C(C(=O)O)c1ccccc1 [NCL 192] | – | – | – | – | – | – | – | – | – | >64 µg/mL | >64 µg/mL | >64 µg/mL | >64 µg/mL | –
